Where a name gives a salt, the structure may show the parent alone.
What follows are molecules tested on ATGL-KO iPSCs (assay: High throughput iPSC chemical screening, Oil Red O (ORO) lipid accumulation). Conditions: not given.
Type: cell-based, mouse
Work on `COc1cc2c(c(OC)c1OC)-c1ccc(OC)c(=O)cc1[C@@H](NC(C)=O)CC2` [Colchicine] yielded a Z-score of 35.6417. `CC(N)C(O)c1ccccc1` (centres unmarked) [Phenylpropanolamine hydrochloride] gave a Z-score of 0.2625.

Same assay, conditions: glycolytic switch compounds
For `O=C1O[C@H]([C@@H](O)CO)C(O)=C1O` [Ascorbic acid], the “Rank in normalized ORO score from screen” value was 764. In the case of `CSc1ccc2c(c1)C(N1CCN(C)CC1)Cc1ccccc1S2.O=C(O)/C=C\C(=O)O` (centres unmarked) [Methiothepin maleate], the “Rank in normalized ORO score from screen” value is reported as 658. For `O=c1c2ccccc2[se]n1-c1ccccc1` [Ebselen], the “Rank in normalized ORO score from screen” value was 52.

Same assay, conditions: normalized ORO level vs DMSO-treated cells; compound present during 7 days differentiation, 96-well; negative = decrease in lipid accumulation
In the case of `C[C@]12C=CC(=O)C=C1CC[C@@H]1[C@@H]2C(=O)C[C@@]2(C)[C@H]1CC[C@]2(O)C(=O)CO` [Prednisone], the Z-score is reported as 0.05393. In the case of `CC(C)NCC(O)c1cc(O)cc(O)c1.CC(C)NCC(O)c1cc(O)cc(O)c1.O=S(=O)(O)O` (centres unmarked), the Z-score is reported as −0.3842. Work on `CC(=O)NC(CC(=O)O)C(=O)O` (racemic) [Aspartic acid, N-acetyl (R,S)] yielded a Z-score of 0.7559. Molecule `C[C@]12C=CC(=O)C=C1CC[C@H]1[C@@H]3C[C@@H](O)[C@](O)(C(=O)CO)[C@@]3(C)C[C@H](O)[C@@]12F` [Triamcinolone] has a Z-score of −1.1722. In the case of Ifenprodil tartrate, the Z-score is reported as 0.8399. For `CN1CCCN(C(c2ccccc2)c2ccc(Cl)cc2)CC1` (centres unmarked) [Homochlorcyclizine dihydrochloride], the Z-score was −0.8178. For `C[C@@H]1[C@H](O)[C@@H](C)/C=C/C=C/C=C/C=C/C=C/C=C/C=C/[C@H](O[C@@H]2O[C@H](C)[C@@H](O)[C@H](N)[C@@H]2O)C[C@@H]2O[C@](O)(C[C@@H](O)C[C@@H](O)[C@H](O)CC[C@@H](O)C[C@@H](O)CC(=O)O[C@H]1C)C[C@H](O)[C@H]2C(=O)O` [Amphotericin B], the Z-score was 0.5223. `c1ccc(C2CN3CCSC3=N2)cc1` (centres unmarked) [Tetramisole hydrochloride] showed a Z-score of 0.1333. For `COC(=O)C1=CCCN(C)C1` [Arecoline hydrobromide], the Z-score was 0.1373. With `CC1=C(CC(=O)O)c2cc(F)ccc2/C1=C\c1ccc([S+](C)[O-])cc1` (centres unmarked) [Sulindac] the Z-score was 1.451. For `Cc1cc2c(cc1S(N)(=O)=O)S(=O)(=O)CCC2` [Meticrane], the Z-score was −0.0455. `O=C(O)c1ccccc1Nc1cccc(C(F)(F)F)c1` [Flufenamic acid] was tested, and the Z-score was −0.8139. Molecule `CC(=O)[C@@]1(O)CC[C@H]2[C@@H]3C[C@H](C)C4=CC(=O)C=C[C@]4(C)[C@@]3(F)[C@@H](O)C[C@@]21C` [Fluorometholone] has a Z-score of 0.1317. Thioproperazine dimesylate was tested, and the Z-score was −0.4051. With `O=C1O[C@H]([C@@H](O)CO)C(O)=C1O` [Ascorbic acid] the Z-score was 0.3599. `CCCCOc1ccc(OCCCN2CCOCC2)cc1` [Pramoxine hydrochloride] was tested, and the Z-score was 0.5195. For `CCN1C[C@]2(COC)CC[C@H](O)[C@@]34C5C[C@@H]6[C@@H](OC)C[C@](O)(C(CC23)C14)C5[C@H]6OC(C)=O` (some centres unmarked) [Condelphine], the Z-score was 0.3143. For `CSc1ccc2c(c1)C(N1CCN(C)CC1)Cc1ccccc1S2.O=C(O)/C=C\C(=O)O` (centres unmarked) [Methiothepin maleate], the Z-score was 0.08061. `C#CCN(C)[C@H](C)Cc1ccccc1` [Selegiline hydrochloride] showed a Z-score of 2.279. In the case of `CNCCCC1c2ccccc2C=Cc2ccccc21` [Protriptyline hydrochloride], the Z-score is reported as −0.1298. `C=C[C@]12CN(C)[C@@H]3[C@H]4CO[C@H](C[C@H]41)[C@]1(C(=O)Nc4ccccc41)[C@@H]32` [Gelsemine] gave a Z-score of −0.4693. `C[C@]12CC[C@H](O)C[C@H]1CC[C@@H]1[C@@H]2C[C@@H](O)[C@]2(C)[C@@H](C3=CC(=O)OC3)CC[C@]12O` [Digoxigenin] was tested, and the Z-score was −1.0521. With `COc1cc([S+](C)[O-])ccc1-c1nc2ncccc2[nH]1` (centres unmarked) [Sulmazole] the Z-score was 0.4097. In the case of `CCN(CC)CCOC(=O)C(Cc1cccc2ccccc12)CC1CCCO1` (centres unmarked) [Nafronyl oxalate], the Z-score is reported as 0.6546. For `NS(=O)(=O)c1cc2c(cc1Cl)N=C(CSCc1ccccc1)NS2(=O)=O` [Benzthiazide], the Z-score was −1.594. `CC(C)NCC(O)COc1ccc(COCCOC(C)C)cc1` (centres unmarked) [Bisoprolol fumarate] showed a Z-score of 0.03425. `NS(=O)(=O)c1cc2c(cc1C(F)(F)F)NCNS2(=O)=O` [Hydroflumethiazide] gave a Z-score of 0.1855. `COc1ccc2c(c1OC)C(=O)O[C@@H]2[C@H]1c2c(cc3c(c2OC)OCO3)CCN1C` [Noscapine] was tested, and the Z-score was 0.8948. `COc1ccc(CC2c3cc(OC)c(OC)cc3CC[N+]2(C)CCC(=O)OCCCCCOC(=O)CC[N+]2(C)CCc3cc(OC)c(OC)cc3C2Cc2ccc(OC)c(OC)c2)cc1OC` (centres unmarked) [Atracurium besylate] was tested, and the Z-score was 1.182. For `CN1C(C)(C)CCCC1(C)C` [Pempidine tartrate], the Z-score was −0.8069. `CCN(CCCCOC(=O)c1ccc(OC)c(OC)c1)C(C)Cc1ccc(OC)cc1` (centres unmarked) [Mebeverine hydrochloride] gave a Z-score of 0.1096. Work on `O=C1C(O)=C([C@H]2CC[C@H](c3ccc(Cl)cc3)CC2)C(=O)c2ccccc21` [Atovaquone] yielded a Z-score of 0.629. Molecule Ketanserin tartrate hydrate has a Z-score of 1.256. With `COc1ccc(Cl)cc1C(=O)NCCc1ccc(S(=O)(=O)NC(=O)NC2CCCCC2)cc1` [Glibenclamide] the Z-score was 0.3112. `O=c1c2ccccc2[se]n1-c1ccccc1` [Ebselen] was tested, and the Z-score was −1.5273. `CCN1CCCC1CNC(=O)c1cc(S(N)(=O)=O)ccc1OC` (centres unmarked) [Sulpiride] was tested, and the Z-score was −0.2187. With `Oc1cc(O)c2c(c1)O[C@H](c1ccc(O)c(O)c1)[C@H](O)C2` [Epicatechin-(−)] the Z-score was 0.9251. `Cc1nccn1CC1CCc2c(c3ccccc3n2C)C1=O` (centres unmarked) [Ondansetron Hydrochloride] gave a Z-score of −0.6933. In the case of `CC(C)(C)NC(=O)[C@H]1CC[C@H]2[C@@H]3CC[C@H]4NC(=O)C=C[C@]4(C)[C@H]3CC[C@]12C` [Finasteride], the Z-score is reported as 1.067. Work on `CN(C)CCC=C1c2ccccc2COc2ccccc21` [Doxepin hydrochloride] yielded a Z-score of −1.0091. `C[C@@H](O)[C@H]1C(=O)N2C(C(=O)O)=C(S[C@@H]3CN[C@H](C(=O)N(C)C)C3)[C@H](C)[C@H]12` [Meropenem] was tested, and the Z-score was 0.5806. In the case of `NC[C@@H]1O[C@H](O[C@H]2[C@@H](O)[C@H](O[C@@H]3[C@@H](O)[C@H](N)C[C@H](N)[C@H]3O[C@H]3O[C@H](CN)[C@@H](O)[C@H](O)[C@H]3N)O[C@@H]2CO)[C@H](N)[C@@H](O)[C@@H]1O.O=S(=O)(O)O` [Neomycin sulfate], the Z-score is reported as −0.2127. In the case of `NC12CC3CC(CC(C3)C1)C2.NC12CC3CC(CC(C3)C1)C2.O=C(O)/C=C/C(=O)O` [Adamantamine fumarate], the Z-score is reported as 0.2085. For `O=c1cc(-c2ccc(O)cc2)oc2c([C@@H]3O[C@H](CO)[C@@H](O)[C@H](O)[C@H]3O)c(O)cc(O)c12` [Vitexin], the Z-score was −0.0089. Vitamin K2 was tested, and the Z-score was 0.6129. For `Cl.Cl.OCCN1CCN(CC/C=C2/c3ccccc3Sc3ccc(C(F)(F)F)cc32)CC1` [Flupentixol dihydrochloride cis-(Z)], the Z-score was −0.5309. For `CCCNC(=O)NS(=O)(=O)c1ccc(Cl)cc1` [Chlorpropamide], the Z-score was 0.199. Molecule `CN1CCc2c(c3ccccc3n2Cc2ccccc2)C1.O=S(=O)(O)c1cccc2c(S(=O)(=O)O)cccc12` [Mebhydroline 1,5-naphtalenedisulfonate] has a Z-score of 0.4999. For `CCC(=O)[C@@]1(C)[C@H](C)C[C@H]2[C@@H]3CCC4=CC(=O)C=C[C@]4(C)[C@H]3[C@@H](O)C[C@@]21C` [Rimexolone], the Z-score was −0.4134. With `CC1=C(C(=O)O)N2C(=O)[C@@H](NC(=O)[C@H](N)c3ccccc3)[C@H]2SC1` [Cephalexin monohydrate] the Z-score was −1.1486. For `Br.C[N+]1([O-])[C@@H]2CC(OC(=O)[C@H](CO)c3ccccc3)C[C@H]1[C@@H]1O[C@@H]12` (some centres unmarked) [Scopolamin-N-oxide hydrobromide], the Z-score was 0.9998. For `CCCN(CCC)S(=O)(=O)c1ccc(C(=O)O)cc1` [Probenecid], the Z-score was 0.754. `CC1=NCCc2c1[nH]c1cc(O)ccc21.Cl.O.O` [Harmalol hydrochloride dihydrate] showed a Z-score of 0.3888. For `Nc1ccc(S(=O)(=O)Nc2cnc3ccccc3n2)cc1` [Sulfaquinoxaline sodium salt], the Z-score was 0.579. `CCCNC(C)(C)COC(=O)c1ccccc1` [Meprylcaine hydrochloride] showed a Z-score of −0.9597. `COc1cc2nc(N3CCN(C(=O)c4ccco4)CC3)nc(N)c2cc1OC` [Prazosin hydrochloride] showed a Z-score of 0.6597. With `O=C(O)c1cc(/N=N/c2ccc(S(=O)(=O)Nc3ccccn3)cc2)ccc1O` [Sulfasalazine] the Z-score was −1.0569. With `Nc1ccn([C@H]2CC[C@@H](CO)O2)c(=O)n1` [Zalcitabine] the Z-score was 2.323. With `CCCN(CCC)C(=O)C(CCC(=O)O)NC(=O)c1ccccc1` (centres unmarked) [Proglumide] the Z-score was 0.1235. `CN1CC[C@]23c4ccccc4N[C@H]1[C@]21CCN(C)[C@H]3Nc2ccccc21` [Calycanthine] was tested, and the Z-score was −0.8381. Molecule `C[N+]1(C)CCC(=C(c2ccccc2)c2ccccc2)CC1` [Diphemanil methylsulfate] has a Z-score of 0.6045. `CC(C)C(=O)Nc1ccc([N+](=O)[O-])c(C(F)(F)F)c1` [Flutamide] gave a Z-score of −0.5472. Work on `COc1c2occc2c(OC)c2c(=O)cc(C)oc12` [Khellin] yielded a Z-score of −0.1533. `COC(=O)[C@H]1[C@H]2C[C@@H]3c4[nH]c5cc(OC)ccc5c4CCN3C[C@H]2C[C@@H](OC(=O)c2cc(OC)c(OC)c(OC)c2)[C@@H]1OC` [Reserpine] was tested, and the Z-score was −0.083. Work on `N[C@@H](C(=O)N[C@@H]1C(=O)N2C(C(=O)O)=C(Cl)CC[C@H]12)c1ccccc1` [Loracarbef] yielded a Z-score of 0.6457. `COc1ccc2cc3[n+](cc2c1OC)CCc1cc2c(cc1-3)OCO2` [Berberine chloride] was tested, and the Z-score was 12.68. Molecule `CN(C)[C@@H]1C(O)=C(C(N)=O)C(=O)[C@@]2(O)C(O)=C3C(=O)c4c(O)cccc4[C@@](C)(O)[C@H]3C[C@@H]12` [Tetracycline hydrochloride] has a Z-score of −0.2579. Molecule `CN(C(=O)C(Cl)Cl)c1ccc(OC(=O)c2ccco2)cc1` [Diloxanide furoate] has a Z-score of −0.9785. In the case of `CCCCOc1ccc(CC(=O)NO)cc1` [Bufexamac], the Z-score is reported as 0.678. With `Cc1cc(C)nc(NS(=O)(=O)c2ccc(N)cc2)n1` [Sulfamethazine sodium salt] the Z-score was 1.431. `CN1[C@@H]2CCC[C@H]1CC(=O)C2.Cl` [Pseudopelletierine hydrochloride] gave a Z-score of 0.1911. `CN(C)C(=N)N=C(N)N` [Metformin hydrochloride] showed a Z-score of 0.7664.

Source: patent publication US9393221B2, “Methods and compounds for reducing intracellular lipid storage” (THE GENERAL HOSPITAL CORPORATION, priority 2011, dated 2016)
Throughout, for Z-score: test concentration or dose not given here.
